Data from patent publication US9181277B2, “Aminoquinazoline derivatives and their salts and methods of use” (SUNSHINE LAKE PHARMA CO., LTD., priority 2011, dated 2015).

Target: EGFR Kinase (Homo sapiens, UniProt P00533)
Assay: EGFR inhibitory activity test (HTRF kinEASE STK S1 kinase assay)
Assay type: biochemical
Conditions: replicate wells, read-out: IC50(nM), Inhibitory Activity of Compounds on EGFR Kinase
Method: In a pilot study, the compounds disclosed herein were screened for their EGFR inhibitory activity. The Cisbio Research Product HTRF kinEASE STK S1 kinase assay/inhibitor screening Kit, can detect the generation of the phosphorylated substrate. Kinase, biotinylated substrate and ATP were first added into buffer solution, and the phosphorylated biotinylated substrates were formed by enzyme reaction. Then, to the above solution was added europium-labeled anti-phospho-site specific antibodies and XL665-labeled avidin. The Specific combinations of antibody with antigen, and biotin with avidin, bring the europium and XL665 closer together and resonance energy transferred. The signals at 620 nm and 665 nm were detected, and the activity of the kinase was evaluated by the ratio of the two signals value.

Chain of EGFR Kinase (P00533 25-1210): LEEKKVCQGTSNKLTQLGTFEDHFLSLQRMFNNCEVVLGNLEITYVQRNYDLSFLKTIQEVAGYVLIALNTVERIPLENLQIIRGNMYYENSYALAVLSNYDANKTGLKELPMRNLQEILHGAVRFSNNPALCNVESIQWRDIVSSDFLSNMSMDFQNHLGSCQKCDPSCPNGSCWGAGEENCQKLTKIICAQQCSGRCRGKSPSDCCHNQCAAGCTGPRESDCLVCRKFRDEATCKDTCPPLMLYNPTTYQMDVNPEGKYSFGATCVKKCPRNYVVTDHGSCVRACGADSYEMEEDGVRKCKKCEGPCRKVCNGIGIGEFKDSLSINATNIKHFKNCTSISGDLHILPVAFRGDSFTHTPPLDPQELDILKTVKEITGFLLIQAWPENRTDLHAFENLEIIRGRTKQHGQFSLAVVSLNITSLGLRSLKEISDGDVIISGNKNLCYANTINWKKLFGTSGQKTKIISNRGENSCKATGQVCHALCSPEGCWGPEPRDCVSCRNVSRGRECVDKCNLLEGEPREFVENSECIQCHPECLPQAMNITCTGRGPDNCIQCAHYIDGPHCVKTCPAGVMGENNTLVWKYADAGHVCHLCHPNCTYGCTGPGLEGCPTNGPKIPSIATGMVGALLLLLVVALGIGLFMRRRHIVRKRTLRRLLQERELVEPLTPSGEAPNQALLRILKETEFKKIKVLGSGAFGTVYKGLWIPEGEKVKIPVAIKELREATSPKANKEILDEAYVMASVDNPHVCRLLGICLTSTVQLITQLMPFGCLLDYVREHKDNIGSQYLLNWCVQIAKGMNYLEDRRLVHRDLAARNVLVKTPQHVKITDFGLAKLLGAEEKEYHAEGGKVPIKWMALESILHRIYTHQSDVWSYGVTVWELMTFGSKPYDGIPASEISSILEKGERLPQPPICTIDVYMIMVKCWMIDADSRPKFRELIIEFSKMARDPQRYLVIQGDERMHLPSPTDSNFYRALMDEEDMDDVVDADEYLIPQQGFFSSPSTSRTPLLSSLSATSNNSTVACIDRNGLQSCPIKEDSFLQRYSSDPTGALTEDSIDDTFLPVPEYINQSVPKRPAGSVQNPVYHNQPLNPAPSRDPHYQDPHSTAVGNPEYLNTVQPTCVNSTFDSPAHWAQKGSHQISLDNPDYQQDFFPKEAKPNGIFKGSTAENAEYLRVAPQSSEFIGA

Question: How did the IC50 turn out when `COc1cc2ncnc(Nc3ccc(F)c(Cl)c3)c2cc1OCCCN1CC2CNCC2C1` (stereo not drawn) [Example 11, N-(3-chloro-4-fluorophenyl)-6-(3-(hexahydropyrrolo[3,4-c]pyrrol-2(1H)-yl)propoxy)-7-methoxyquinazolin-4-amine] was run?
Answer: Its IC50 is 0.001 to 0.1 nM.

Question: With `COc1cc2ncnc(Nc3ccc(Br)cc3F)c2cc1OCCCN1CC2OCCOC2C1` (stereo not drawn) [Example 10, N-(4-bromo-2-fluorophenyl)-7-methoxy-6-(3-(tetrahydro-2H-[1,4]dioxino[2,3-c]pyrrol-6(3H)-yl)propoxy)quinazolin-4-amine] as the compound, how does the IC50 read?
Answer: The IC50 was > 10 nM.

Question: How did the IC50 turn out when `COc1cc2ncnc(Nc3ccc(F)c(Cl)c3)c2cc1OCCCN1CCC2NCCC2C1` (stereo not drawn) [Example 19, N-(3-chloro-4-fluorophenyl)-6-(3-(hexahydro-1H-pyrrolo[3,2-c]pyridin-5(6H)-yl)propoxy)-7-methoxyquinazolin-4-amine] was run?
Answer: Its IC50 is 0.001 to 0.1 nM.

Question: How did the IC50 turn out when `COc1cc2ncnc(Nc3ccc(F)c(Cl)c3)c2cc1OCCCN1CCc2noc(C)c2C1` [Example 24, N-(3-chloro-4-fluorophenyl)-7-methoxy-6-(3-(3-methyl-6,7-dihydroisoxazolo[4,3-c]pyridin-5(4H)-yl)propoxy)quinazolin-4-amine] was run?
Answer: The IC50 was 0.001 to 0.1 nM.

Question: For `COc1cc2ncnc(Nc3ccc(F)c(Cl)c3)c2cc1OCCCN1CCC2COCC2C1` (stereo not drawn) [Example 37, N-(3-chloro-4-fluorophenyl)-6-(3-(hexahydrofuro[3,4-c]pyridin-5(3H)-yl)propoxy)-7-methoxy quinazolin-4-amine], which IC50 is on record?
Answer: The IC50 was 1 to 10 nM.

Question: `COc1cc2ncnc(Nc3ccc(F)c(Cl)c3)c2cc1OCCCN1CC2OCCN(Cc3ccccc3)C2C1` (stereo not drawn) [Example 16, 6-(3-(4-benzylhexahydropyrrolo[3,4-b][1,4]oxazin-6(2H)-yl)propoxy)-N-(3-chloro-4-fluorophenyl)-7-methoxyquinazolin-4-amine] was tested. Which IC50 did it give?
Answer: Its IC50 is 1 to 10 nM.

Question: How did the IC50 turn out when `CCN1CCCC2CN(CCCOc3cc4c(Nc5ccc(F)c(Cl)c5)ncnc4cc3OC)CC21` (stereo not drawn) [Example 34, N-(3-chloro-4-fluorophenyl)-6-(3-(1-ethylhexahydro-1H-pyrrolo[3,4-b]pyridin-6(2H)-yl)propoxy)-7-methoxyquinazolin-4-amine] was run?
Answer: Its IC50 is 0.001 to 0.1 nM.

Question: With `COc1cc2ncnc(Nc3ccc(F)c(Cl)c3)c2cc1OCCCN1CCC2CCNCC2C1` (stereo not drawn) [Example 33, N-(3-chloro-4-fluorophenyl)-7-methoxy-6-(3-(octahydro-2,7-naphthyridin-2(1H)-yl)propoxy) quinazolin-4-amine] as the compound, how does the IC50 read?
Answer: Its IC50 is 0.001 to 0.1 nM.

Question: For `COc1cc2ncnc(Nc3ccc(F)c(Cl)c3)c2cc1OCCCN1CCC2CNCC21` (stereo not drawn) [Example 13, N-(3-chloro-4-fluorophenyl)-6-(3-(hexahydropyrrolo[3,4-b]pyrrol-1(2H)-yl)propoxy)-7-methoxyquinazolin-4-amine], which IC50 is on record?
Answer: The IC50 was 0.001 to 0.1 nM.

Question: With `COc1cc2ncnc(Nc3ccc(F)cc3)c2cc1OCCCN1CCn2cnnc2C1` [Example 42, 6-(3-(5,6-dihydro-[1,2,4]triazolo[4,3-a]pyrazin-7(8H)-yl)propoxy)-N-(4-fluorophenyl)-7-methoxyquinazolin-4-amine] as the compound, how does the IC50 read?
Answer: The IC50 was 1 to 10 nM.

Question: With `C#Cc1cccc(Nc2ncnc3cc(OC)c(OCCCN4CC5OCCOC5C4)cc23)c1` (stereo not drawn) [Example 8, N-(3-ethynylphenyl)-7-methoxy-6-(3-(tetrahydro-2H-[1,4]dioxino[2,3-c]pyrrol-6(3H)-yl)propoxy)quinazolin-4-amine] as the compound, how does the IC50 read?
Answer: Its IC50 is 0.001 to 0.1 nM.

Question: For `COc1cc2ncnc(Nc3ccc(F)c(Cl)c3)c2cc1OCCCN1CCC2CCN(C)C2C1` (stereo not drawn) [Example 18, N-(3-chloro-4-fluorophenyl)-7-methoxy-6-(3-(1-methylhexahydro-1H-pyrrolo[2,3-c]pyridin-6(2H)-yl)propoxy)quinazolin-4-amine], which IC50 is on record?
Answer: Its IC50 is 0.001 to 0.1 nM.
